How the values were obtained:
TNFSF9 = molecular target: T1, TNFSF9 (Homo sapiens, UniProt P41273); test: cellular thermal shift assay (CETSA), Western blot; format: cell-based; settings: PC3 cells treated 2 h with 0.01-100 µmol/L; heated at 53 °C for 3 min
T1 construct: endogenous protein in human PC3 prostate cancer cells, detected by Western blot (Abcam ab68185)

DUSP1 = molecular target: T2, DUSP1 (Homo sapiens, UniProt P28562); test: cellular thermal shift assay (CETSA), Western blot; format: cell-based; settings: PC3 cells treated 2 h with 0.01-100 µmol/L; heated at 53 °C for 3 min
T2 construct: endogenous protein in human PC3 prostate cancer cells, detected by Western blot (Abcam ab61201)
T2 sequence (P28562 1-367): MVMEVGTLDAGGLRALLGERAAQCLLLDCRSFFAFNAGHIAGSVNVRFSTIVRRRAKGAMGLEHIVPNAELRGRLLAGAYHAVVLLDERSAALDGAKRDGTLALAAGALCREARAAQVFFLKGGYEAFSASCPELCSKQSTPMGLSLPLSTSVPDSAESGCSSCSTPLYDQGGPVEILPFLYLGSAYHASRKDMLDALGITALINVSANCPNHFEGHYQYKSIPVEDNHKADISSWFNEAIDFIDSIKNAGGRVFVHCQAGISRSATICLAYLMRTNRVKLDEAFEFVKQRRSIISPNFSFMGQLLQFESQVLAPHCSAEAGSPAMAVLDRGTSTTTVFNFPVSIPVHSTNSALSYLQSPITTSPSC

T1 sequence (P41273 whole entry): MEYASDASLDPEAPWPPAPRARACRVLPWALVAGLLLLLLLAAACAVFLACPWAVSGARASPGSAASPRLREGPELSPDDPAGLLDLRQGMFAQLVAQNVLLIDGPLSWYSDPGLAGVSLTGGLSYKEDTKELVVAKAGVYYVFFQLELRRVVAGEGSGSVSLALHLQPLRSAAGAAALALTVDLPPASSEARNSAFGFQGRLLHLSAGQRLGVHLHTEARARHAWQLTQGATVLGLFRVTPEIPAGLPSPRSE

CCN(CC)CCOc1ccc(C[C@H](NC(=O)c2ccc(OCc3ccccc3)cc2)C(=O)N[C@H](CO)Cc2ccccc2)cc1 [HXL131]
cellular thermal shift assay (CETSA), Western blot (TNFSF9): HXL131 could stably bind DUSP1 and TNFSF9 proteins | cellular thermal shift assay (CETSA), Western blot (DUSP1): HXL131 could stably bind DUSP1 and TNFSF9 proteins

Reference: PMC9504056, “A Novel L-Phenylalanine Dipeptide Inhibits the Growth and Metastasis of Prostate Cancer Cells via Targeting DUSP1 and TNFSF9” (International Journal of Molecular Sciences, 2022)
